From patent publication US20060216258A1, “Water-in-silicone emulsion compositions” (priority 2005, published 2006)

Test: human repetitive patch test (cumulative irritation)
Conditions: undiluted product under semi-occlusive patches daily over twelve-day test period, about 100 μl per patch; SLS value is average of two studies
Protocol: The technique involves application of undiluted test products under semi-occlusive patches daily over a twelve-day test period. Approximately 100 μl of test product is applied to each non-woven cotton pad and secured to the skin with porous, hypoallergenic tape. An undosed patch served as a negative control, while a 1.0% sodium lauryl sulfate (SLS) patch served as the positive control. Each day, patches were removed and test sites professionally graded for irritation prior to re-patching.

CCCCCCCCCCCCOS(=O)(=O)[O-].[Na+] [SLS, sodium lauryl sulfate]
Cumulative Irritation Score: 514
